Test [1] deals with T1, MalE-DmxA^WT (Myxococcus xanthus, UniProt Q1D632).
T1 construct: gene MXAN_3705; residues 223-722 (two GAF domains + GGDEF; N-terminal transmembrane domain removed), N-terminal MalE (MBP) tag kept, pMAL-c6t, E. coli Rosetta DE3; dimer by SEC
T1 sequence (Q1D632 211-710): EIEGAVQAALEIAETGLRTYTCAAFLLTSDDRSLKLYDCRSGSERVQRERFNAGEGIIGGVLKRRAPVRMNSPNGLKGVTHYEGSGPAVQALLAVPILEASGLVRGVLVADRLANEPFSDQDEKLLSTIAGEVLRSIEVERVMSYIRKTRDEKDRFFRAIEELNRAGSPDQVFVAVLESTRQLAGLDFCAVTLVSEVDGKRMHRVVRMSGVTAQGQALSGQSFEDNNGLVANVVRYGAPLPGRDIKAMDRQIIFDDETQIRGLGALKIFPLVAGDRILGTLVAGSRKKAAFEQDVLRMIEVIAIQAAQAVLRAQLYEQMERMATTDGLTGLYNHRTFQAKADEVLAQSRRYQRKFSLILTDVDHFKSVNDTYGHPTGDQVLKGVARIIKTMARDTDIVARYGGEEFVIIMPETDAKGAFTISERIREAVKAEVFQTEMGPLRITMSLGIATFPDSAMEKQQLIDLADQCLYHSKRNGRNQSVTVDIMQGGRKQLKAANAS
Put plainly: diguanylate cyclase assay, pyrophosphate release (EnzChek). Format: biochemical. To be noted: 1 µM protein, 50 µM GTP.

The target of test [2] is T2, MalE-DmxA^WT (Myxococcus xanthus, UniProt Q1D632).
T2 construct: gene MXAN_3705; residues 223-722 (two GAF domains + GGDEF; N-terminal transmembrane domain removed), N-terminal MalE (MBP) tag kept, pMAL-c6t, E. coli Rosetta DE3; dimer by SEC
Described as above. In kind it is biochemical. To be noted: 1 µM protein, 50 µM GTP; I-site mutant.
T2 sequence (Q1D632 entry or part of it R603A): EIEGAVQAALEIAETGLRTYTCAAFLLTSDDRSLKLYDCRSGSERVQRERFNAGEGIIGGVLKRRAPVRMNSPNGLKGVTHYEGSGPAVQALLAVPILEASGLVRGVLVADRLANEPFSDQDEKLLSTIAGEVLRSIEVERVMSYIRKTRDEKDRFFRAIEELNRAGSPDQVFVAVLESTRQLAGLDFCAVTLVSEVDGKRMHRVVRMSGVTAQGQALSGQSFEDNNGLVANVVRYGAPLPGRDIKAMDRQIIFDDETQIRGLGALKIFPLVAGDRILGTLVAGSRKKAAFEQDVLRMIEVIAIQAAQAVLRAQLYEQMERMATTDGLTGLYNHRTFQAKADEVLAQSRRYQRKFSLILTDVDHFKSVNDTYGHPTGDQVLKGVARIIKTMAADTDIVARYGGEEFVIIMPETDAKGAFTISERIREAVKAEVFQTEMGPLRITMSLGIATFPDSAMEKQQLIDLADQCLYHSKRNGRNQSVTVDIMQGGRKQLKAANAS

Test [3] has as its target T1, MalE-DmxA^WT. Put plainly: diguanylate cyclase assay, pyrophosphate release (EnzChek), variable-slope inhibition fit. Format: biochemical.
The target in test [4] is T3, MalE-DmxA^WT (Myxococcus xanthus, UniProt Q1D632, E614A).
T3 construct: gene MXAN_3705; residues 223-722 (two GAF domains + GGDEF; N-terminal transmembrane domain removed), N-terminal MalE (MBP) tag kept, pMAL-c6t, E. coli Rosetta DE3; dimer by SEC
T3 sequence (Q1D632 entry or part of it E614A): as the sequence (Q1D632 entry or part of it R603A) above, with A393R, E404A counted along it
Put plainly: bio-layer interferometry, biotinylated c-di-GMP immobilised on streptavidin sensor. In kind it is binding. To be noted: labelled compound (biotinylated c-di-GMP, immobilised); 10 µM protein; active-site mutant. (In general: In BLI a coated tip is dipped into the sample, and binding shifts an interference pattern.)

Test [5] deals with MalE-DmxA^E626A (DmxA residues 223-722 with the catalytic-site substitution E626A) (Myxococcus xanthus DK1622). Put plainly: SEC; HiLoad 16/600 Superdex 200 pg; SEC buffer 50 mM Tris-HCl pH 7.2, 250 mM NaCl, 10 mM MgCl2, 5 mM DTT, 5% glycerol; column calibrated with Ribonuclease A, Carbonic Anhydrase, Conalbumin and Ferritin; oligomeric state estimated from the elution volume.
For test [6], the target named is MalE-DmxA^GAF×2 (DmxA residues 223-547: only the two GAF domains) (Myxococcus xanthus DK1622). The description is as above.
Test [7] concerns the target MalE-DmxA^R615A (DmxA residues 223-722 with the I-site substitution R615A) (Myxococcus xanthus DK1622). The description is as above.
For test [8], the target named is MalE-DmxA^WT (DmxA residues 223-722: two GAF domains and the GGDEF domain) (Myxococcus xanthus DK1622). The description is as above.

These results are taken from article PMC11255338, “A deterministic, c-di-GMP-dependent program ensures the generation of phenotypically similar, symmetric daughter cells during cytokinesis” (Nature Communications, 2024).

Broadly, the Ki is the equilibrium dissociation constant of an inhibitor or competing ligand from its target. Low readings indicate a stronger hold on the target, high ones a looser hold on the target. For orientation: stoichiometry N means a count of units in the complex or per binding partner.

Regarding `Nc1nc2c(ncn2[C@@H]2O[C@H](COP(=O)(O)OP(=O)(O)OP(=O)(O)O)[C@@H](O)[C@H]2O)c(=O)[nH]1` [GTP], the “diguanylate cyclase assay, pyrophosphate release (EnzChek)” value was “MalE-DmxA^WT and MalE-DmxA^R615A had DGC activity” at MalE-DmxA^WT [1]; “MalE-DmxA^WT and MalE-DmxA^R615A had DGC activity” at MalE-DmxA^WT [2].

For `Nc1nc2c(ncn2[C@@H]2O[C@@H]3COP(=O)(O)O[C@H]4[C@@H](O)[C@H](n5cnc6c(=O)[nH]c(N)nc65)O[C@@H]4COP(=O)(O)O[C@H]3[C@H]2O)c(=O)[nH]1` [c-di-GMP], at MalE-DmxA^WT [3], the Ki is roughly 15 µM. Besides, the “bio-layer interferometry, biotinylated c-di-GMP immobilised on streptavidin sens” value on MalE-DmxA^WT [4] was “MalE-DmxA^WT and MalE-DmxA^E626A bound c-di-GMP”. With “MalE-DmxA^E626A (DmxA residues 223-722 with the catalytic-site substitution E626A) (domain or fragment)”, the stoichiometry N in test [5] was 2. Regarding “MalE-DmxA^GAF×2 (DmxA residues 223-547: only the two GAF domains) (domain or fragment)”, in test [6], the stoichiometry N is 2.

As for “MalE-DmxA^R615A (DmxA residues 223-722 with the I-site substitution R615A) (domain or fragment)”, the stoichiometry N in test [7] was 2. Turning to “MalE-DmxA^WT (DmxA residues 223-722: two GAF domains and the GGDEF domain) (domain or fragment)”, in test [8], the stoichiometry N was 2.
